Drawing on ChEMBL document CHEMBL1122381, “Synthesis and antitumor activity of 7- and 9-(6'-deoxy-alpha-L-talofuranosyl) hypoxanthine and 9-(6'-deoxy-alpha-L-talofuranosyl)-6-thiopurine” (1983), this text covers inhibition and T/C for three molecules.

Calls of active or inactive are those of the source. The calls are words filed in the database; no cut-off is given here.

Test [1] concerns L1210. The experiment in a line: Antitumor activity against L1210 tumor cell growth in vitro and the value is expressed as % inhibition at a dose of 1 ug/mL. The conditions noted are these: Mus musculus. The format is functional.
Test [2] addresses T1, Purine nucleoside phosphorylase (Bos taurus) (UniProt P55859).
T1 sequence (whole entry): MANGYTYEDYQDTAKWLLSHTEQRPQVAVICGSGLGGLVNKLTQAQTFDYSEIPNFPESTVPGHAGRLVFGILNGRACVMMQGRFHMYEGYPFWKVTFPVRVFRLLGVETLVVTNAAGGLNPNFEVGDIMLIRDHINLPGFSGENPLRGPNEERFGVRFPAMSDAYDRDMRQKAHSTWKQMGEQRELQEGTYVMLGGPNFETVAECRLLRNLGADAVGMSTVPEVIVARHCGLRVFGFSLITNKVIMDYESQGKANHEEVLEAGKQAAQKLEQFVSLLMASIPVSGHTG
Nature of the test: Antitumor activity by inhibiting purine nucleoside phosphorylase (PNPase) enzyme; NA means inactive.

Test [3] has as its system L1210. Nature of the test: Antitumor activity against L1210 tumor cells in vivo and the value is expressed as T / C ([…]) at a dose of 10000 ug/kg. Type of test: functional, Mus musculus.
Test [4] concerns L1210. Nature of the test: Antitumor activity against L1210 tumor cells tested in vivo; NA means inactive. The conditions noted are these: Mus musculus. The format is functional, organism-based.

A word on the inhibition: it is the drop in the measured response relative to a control, in per cent. Molecule `CC(O)[C@H]1O[C@@H](n2cnc3c(S)ncnc32)[C@H](O)[C@@H]1O` (stereo not given in full) yielded an inhibition at 1 µg/mL in the test with L1210 [1] of 50%. In test [2], the inhibition entry was “inactive”. This molecule returned a T/C with L1210 [3] of 146.
Turning to `CC(O)[C@H]1O[C@@H](n2cnc3ncnc(O)c32)[C@H](O)[C@@H]1O` (stereo not given in full), the T/C result in the test on L1210 [4] is “inactive”.
For `CC(O)[C@H]1O[C@@H](n2cnc3c(O)ncnc32)[C@H](O)[C@@H]1O` (stereo not given in full), the inhibition entry in test [2] is “inactive”.
